Experimental data: PubChem BioAssay (NCI)
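Test compounds were applied to cells in 96-well plates for 48 hours at 5 doses. TGI: concentration producing complete growth inhibition.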

Tests used:
Assay in all cases: NCI tumour cell line growth inhibition, 48 h
BT-549 breast = system: BT-549 breast
CAKI-1 renal = system: CAKI-1 renal
HCC-2998 colon = system: HCC-2998 colon
HCT-15 colon = system: HCT-15 colon
HL-60(TB) leukemia = system: HL-60(TB) leukemia
HOP-62 NSCLC = system: HOP-62 NSCLC
NCI-H460 lung = system: NCI-H460 lung
OVCAR-5 ovarian = system: OVCAR-5 ovarian
OVCAR-8 ovarian = system: OVCAR-8 ovarian
PC-3 prostate = system: PC-3 prostate
RPMI-8226 leukemia = system: RPMI-8226 leukemia
RXF 393 renal = system: RXF 393 renal
COLO 205 colon = system: COLO 205 colon
EKVX NSCLC = system: EKVX NSCLC
HCT-116 colon = system: HCT-116 colon
HS 578T breast = system: HS 578T breast
LOX IMVI melanoma = system: LOX IMVI melanoma
MCF7 breast = system: MCF7 breast
SK-MEL-5 melanoma = system: SK-MEL-5 melanoma
IGROV1 ovarian = system: IGROV1 ovarian

SMILES	TGI (BT-549 breast) [µM]	TGI (CAKI-1 renal) [µM]	TGI (HCC-2998 colon) [µM]	TGI (HCT-15 colon) [µM]	TGI (HL-60(TB) leukemia) [µM]	TGI (HOP-62 NSCLC) [µM]	TGI (NCI-H460 lung) [µM]	TGI (OVCAR-5 ovarian) [µM]	TGI (OVCAR-8 ovarian) [µM]	TGI (PC-3 prostate) [µM]	TGI (RPMI-8226 leukemia) [µM]	TGI (RXF 393 renal) [µM]	TGI (COLO 205 colon) [µM]	TGI (EKVX NSCLC) [µM]	TGI (HCT-116 colon) [µM]	TGI (HS 578T breast) [µM]	TGI (LOX IMVI melanoma) [µM]	TGI (MCF7 breast) [µM]	TGI (SK-MEL-5 melanoma) [µM]	TGI (IGROV1 ovarian) [µM]
COc1ccc(-c2csc(=Nc3ccccc3)n2CCCN(C)C)cc1	37.3	> 100	35.3	> 100	> 100	28.3	78.4	30.4	75.6	30.2	60.8	26.6	–	–	–	–	–	–	–	–
COc1cc(C2S/C(=C/c3ccccc3)C(=O)N2c2ccc(NC(C)=O)cc2)cc(OC)c1OC (configuration not stated)	65.4	72.4	52.3	46.7	–	> 100	–	96.2	76.9	48.1	–	63	30.3	38.4	26.1	83.2	63.7	> 100	34.9	–
O=C1C(Cl)N(c2cccc(Cl)c2)C1c1c[nH]c2ccccc12 (configuration not stated)	–	–	–	–	> 100	> 100	> 100	–	> 100	–	> 100	> 100	> 100	> 100	> 100	–	–	–	> 100	> 100
CCOC1=NC(C(F)(F)F)(C(F)(F)F)N=C(N2CCOCC2)O1	> 100	> 100	> 100	> 100	> 100	–	> 100	> 100	> 100	> 100	> 100	> 100	> 100	> 100	> 100	> 100	> 100	> 100	> 100	> 100
CC[C@@H]1ON(C)[C@H]2CN(C)C(=O)[C@@H]12	–	> 100	> 100	> 100	> 100	> 100	> 100	> 100	> 100	> 100	> 100	–	> 100	–	> 100	> 100	> 100	> 100	> 100	> 100
COc1nc2ccc(COc3ccc(C(=O)NC(CCC(=O)O)C(=O)O)cc3)cc2nc1OC (configuration not stated)	–	> 10	> 10	> 10	> 10	> 10	> 10	> 10	–	> 10	> 10	> 10	> 10	> 10	–	> 10	> 10	> 10	> 10	> 10
